The values that follow come from patent US9540357B1, “15-aryl prostaglandins as EP4 agonists, and methods of use thereof” (Allergan, Inc., priority 2014, dated 2017).

The structures appear in SMILES notation. Where “and” joins values, the source holds several entries; their conditions need not be identical. Equal values may be shown once.

Assay [1] has as its target T1, EP4 (Homo sapiens (Human), UniProt P35408). In words: cAMP assay, EP4. The assay is classed as cell-based. Conditions: HEK-EBNA cells expressing EP4. How it is done:
A 384-well drug plate was prepared to contain 6 test compounds, PGE2 and cAMP in 16 serial dilutions in triplicate, using a Biomek station. HEK-EBNA cells expressing a target PG receptor subtype (EP2 or EP4) were suspended in a stimulation buffer (HBSS, 0.1% BSA, 0.5 mM IBMX and 5 mM HEPES, pH 7.4) in a density of 10^4 cells/5 microliters. The reaction was initiated by mixing 5 microliters drug dilutions with 5 microliters of HEK-EBNA cells in a well, carried out for 30 min at room temperature, and followed by the addition of 5 microliters anti-cAMP acceptor beads in the control buffer with Tween-20 (25 mM NaCl, 0.03% Tween-20, 5 mM HEPES, pH 7.4). After 30 min in the dark at room temperature, the mixtures were incubated with 15 microliters biotinylated-cAMP/streptavidin donor beads in Lysis/Detection buffer (0.1% BSA, 0.3% Tween-20 and 5 mM HEPES, pH 7.4) for 45 min at room temperature. Fluorescence changes were read using a Fusion-alpha microplate reader.

The target in assay [2] is T1, EP4. In words: Competition binding, EP4.
Assay [3] concerns the target EP2 (Homo sapiens (Human), UniProt P43116). In words: Competition binding ([3H]PGE2), EP2. Particulars: HEK 293 cells stably expressing human EP2 receptors, [3H]PGE2 10 nM. On the procedure: Competition binding experiments were performed in a medium containing Hank's balanced salt solution, HEPES 20 mM, pH 7.3, membranes (˜60 μg protein) or 2×10^5 cells from HEK 293 cells stably expressing human EP2 receptors, [^3H]PGE2 (10 nM) and various concentrations of test compounds in a total volume of 300 μl. Reaction mixtures were incubated at 23° C. for 60 min, and were filtered over Whatman GF/B filters under vacuum. Filters were washed three times with 5 ml ice-cold buffer containing 50 mM Tris/HCl (pH 7.3). Non-specific binding was estimated in the presence of excess unlabeled PGE2 (10 μM). Binding data fitted to the binding model for a single class of binding sites, using nonlinear regression analysis. IC50 values thus obtained were converted to Ki using the equation of Ki=(IC50/(1+[L]/KD) where [L] represents PGE2 concentration (10 nM) and KD the dissociation constant for [^3H]PGE2 at human EP2 receptors (40 nM).

Broadly, the EC50 is the concentration that produces a half-maximal response. The low end stands for an effect from little substance, the high end for a need for much substance. A word on the Ki: it is the equilibrium dissociation constant of an inhibitor or competing ligand from its target.

Sequence of EP2 (P43116 whole entry): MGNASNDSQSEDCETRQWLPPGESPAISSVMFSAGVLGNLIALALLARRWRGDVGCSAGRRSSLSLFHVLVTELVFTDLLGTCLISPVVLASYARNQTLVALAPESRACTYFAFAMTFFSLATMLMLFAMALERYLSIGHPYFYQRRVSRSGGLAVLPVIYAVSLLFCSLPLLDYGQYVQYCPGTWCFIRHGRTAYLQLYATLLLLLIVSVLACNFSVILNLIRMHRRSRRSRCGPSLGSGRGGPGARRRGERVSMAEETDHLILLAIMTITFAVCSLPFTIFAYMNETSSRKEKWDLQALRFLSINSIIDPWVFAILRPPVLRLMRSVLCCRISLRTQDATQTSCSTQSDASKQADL
T1 sequence (P35408 whole entry): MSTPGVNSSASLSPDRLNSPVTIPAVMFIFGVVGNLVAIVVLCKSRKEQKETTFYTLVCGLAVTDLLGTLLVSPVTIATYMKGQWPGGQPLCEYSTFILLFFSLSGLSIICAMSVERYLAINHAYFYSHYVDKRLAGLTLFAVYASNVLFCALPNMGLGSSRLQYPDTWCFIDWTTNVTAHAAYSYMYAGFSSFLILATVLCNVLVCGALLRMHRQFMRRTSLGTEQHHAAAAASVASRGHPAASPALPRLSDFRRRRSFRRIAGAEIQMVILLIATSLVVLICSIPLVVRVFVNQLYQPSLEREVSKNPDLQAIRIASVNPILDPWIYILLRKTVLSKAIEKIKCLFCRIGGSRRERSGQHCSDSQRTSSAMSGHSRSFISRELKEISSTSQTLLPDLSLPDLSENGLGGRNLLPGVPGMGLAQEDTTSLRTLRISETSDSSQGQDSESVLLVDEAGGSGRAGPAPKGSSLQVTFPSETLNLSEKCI

For the compound `Cc1cc(Cl)ccc1-c1ccc(C(O)/C=C/[C@H]2CCC(=O)N2CCCc2ccc(C(=O)O)cc2)s1` (stereo partly drawn) [Example 33, 4-[3-(2(R)-{(1E)-3-[5-(4-chloro-2-methylphenyl)thiophen-2-yl]-3-hydroxyprop-1-en-1-yl}-5-oxopyrrolidin-1-yl)propyl]benzoic acid], in assay [1], the response was half-maximal at 118 nM (EC50). The compound also had a Ki in assay [2] of 536 nM. Further, the EP2 Ki in assay [3] was greater than 10000 nM.

For `CCc1cc(Cl)ccc1-c1cccc(C(O)/C=C/[C@H]2CCC(=O)N2CCCc2ccc(C(=O)O)cc2)c1` (single isomer, unassigned) [Example 15], in assay [1], it took 3 nM to reach a half-maximal effect (EC50). This compound also displayed a Ki in assay [2] of 6 nM. For the same compound, the EP2 Ki in assay [3] is greater than 10000 nM.

`O=C(O)c1ccc(CCCN2C(=O)CC[C@@H]2/C=C/C(O)c2ccccc2)cc1` (single isomer, unassigned) [Example 4]: the EC50 in assay [1] stood at 5540 nM. Further, in assay [2], the Ki is 4970 nM. Besides, in assay [3], the EP2 Ki was greater than 10000 nM.

`CCCCc1cc(Cl)ccc1-c1cccc(C(O)/C=C/[C@H]2CCC(=O)N2CCCc2ccc(C(=O)O)cc2)c1` (stereo partly drawn) [Example 28, 4-(3-{2(R)-[(1E)-3-(2′-butyl-4′-chlorobiphenyl-3-yl)-3-hydroxyprop-1-en-1-yl]-5-oxopyrrolidin-1-yl}propyl)benzoic acid] gave an inhibitory constant (Ki) in assay [2] of 5160 nM. The EP2 Ki in assay [3] was greater than 10000 nM.

`CCc1cc(Cl)ccc1-c1cccc(C(O)/C=C/[C@H]2CCC(=O)N2CCCc2ccc(C(=O)O)cc2)c1` (single isomer, unassigned) [Example 14]: the EC50 in assay [1] was 33 nM. This compound also displayed a Ki in assay [2] of 216 nM. Moreover, the EP2 Ki in assay [3] is greater than 10000 nM.

`O=C(O)c1ccc(CCCN2C(=O)CC[C@@H]2/C=C/C(O)c2cccc(-c3ccc(Cl)cc3C(F)(F)F)c2)cc1` (single isomer, unassigned) [Example 16]: a half-maximal effect in assay [1] (EC50) was put at 87 nM. The same compound returned a Ki in assay [2] of 332 nM. Besides, the EP2 Ki in assay [3] is greater than 10000 nM.

The compound `CC(C)(C)c1cc(Cl)ccc1-c1cccc(C(O)/C=C/[C@H]2CCC(=O)N2CCCc2ccc(C(=O)O)cc2)c1` (stereo partly drawn) [Example 27, 4-(3-{2(R)-[(1E)-3-(2′-tert-butyl-4′-chlorobiphenyl-3-yl)-3-hydroxyprop-1-en-1-yl]-5-oxopyrrolidin-1-yl}propyl)benzoic acid] registered an EC50 in assay [1] of 107 nM. Besides, in assay [2], affinity was put at a Ki of 757 nM. This compound also returned an EP2 Ki in assay [3] greater than 10000 nM.

Take `O=C(O)c1ccc(CCCN2C(=O)CC[C@@H]2/C=C/C(O)c2cccc(Br)c2)cc1` (single isomer, unassigned) [Example 1]: in assay [1], the EP4 cAMP EC50 was greater than 10000 nM. The Ki in assay [2] stood at 2040 nM. Further, in assay [3], the EP2 Ki was greater than 10000 nM.

In the case of `Cc1cc(Cl)ccc1-c1cc(F)cc(C(O)/C=C/[C@H]2CCC(=O)N2CCCc2ccc(C(=O)O)cc2)c1` (single isomer, unassigned) [Example 35], the concentration giving a half-maximal response (EC50) in assay [1] was 59 nM and 99 nM. For the same compound, the Ki in assay [2] was found to be 352 nM. This compound came in with an EP2 Ki in assay [3] greater than 10000 nM.

`Cc1cc(F)ccc1-c1cccc(C(O)/C=C/[C@H]2CCC(=O)N2CCCc2ccc(C(=O)O)cc2)c1` (stereo partly drawn) [Example 11, 4-(3-{2(R)-[(1E)-3-(4′-fluoro-2′-methylbiphenyl-3-yl)-3-hydroxyprop-1-en-1-yl]-5-oxopyrrolidin-1-yl}propyl)benzoic acid] returned a Ki in assay [2] greater than 1340 nM. The same compound came in with an EP2 Ki in assay [3] greater than 10000 nM.

In assay [2], `Cc1cc(Cl)ccc1-c1ccc(C(O)/C=C/[C@H]2CCC(=O)N2CCCc2ccc(C(=O)O)cc2)s1` (stereo partly drawn) [Example 32, 4-[3-(2(R)-{(1E)-3-[5-(4-chloro-2-methylphenyl)thiophen-2-yl]-3-hydroxyprop-1-en-1-yl}-5-oxopyrrolidin-1-yl)propyl]benzoic acid] gave a Ki of 4830 nM. Moreover, the EP2 Ki in assay [3] was greater than 10000 nM.

On to `Cc1c(-c2cccc(C(O)/C=C/[C@H]3CCC(=O)N3CCCc3ccc(C(=O)O)cc3)c2)ccc(Cl)c1Cl` (single isomer, unassigned) [Example 23], for which the EC50 in assay [1] was found to be 3 nM. Besides, the inhibitory constant (Ki) in assay [2] stood at 140 nM. Further, in assay [3], the EP2 Ki was greater than 10000 nM.

On to `Cc1cc(Cl)cc(C)c1-c1cccc(C(O)/C=C/[C@H]2CCC(=O)N2CCCc2ccc(C(=O)O)cc2)c1` (single isomer, unassigned) [Example 21], for which the EC50 in assay [1] was 2 nM. This compound also returned an inhibition constant Ki in assay [2] of 60 nM. For the same compound, in assay [3], the EP2 Ki was greater than 10000 nM.

Take `Cc1cc(Cl)ccc1-c1cccc(C(O)/C=C/[C@H]2CCC(=O)N2CCCc2ccc(C(=O)O)cc2)c1` (stereo partly drawn) [Example 13, 4-(3-{2(R)-[(1E)-3-(4′-chloro-2′-methylbiphenyl-3-yl)-3-hydroxyprop-1-en-1-yl]-5-oxopyrrolidin-1-yl}propyl)benzoic acid]: the EC50 in assay [1] is 4 nM. In addition, the Ki in assay [2] came out at 23 nM; in assay [3] it was 4320 nM.

As for `Cc1cc(F)ccc1-c1cccc(C(O)/C=C/[C@H]2CCC(=O)N2CCCc2ccc(C(=O)O)cc2)c1` (stereo partly drawn) [Example 12, 4-(3-{2(R)-[(1E)-3-(4′-fluoro-2′-methylbiphenyl-3-yl)-3-hydroxyprop-1-en-1-yl]-5-oxopyrrolidin-1-yl}propyl)benzoic acid], in assay [1], the EC50 was 8 nM. In assay [2], the Ki was determined as 53 nM. In assay [3], this compound had an EP2 Ki greater than 10000 nM.

As to `Cc1ccccc1-c1cccc(C(O)/C=C/[C@H]2CCC(=O)N2CCCc2ccc(C(=O)O)cc2)c1` (single isomer, unassigned) [Example 8], the half-maximal effective concentration (EC50) in assay [1] was 2 nM. Also, the affinity in assay [2], expressed as Ki, was 159 nM. In assay [3], the EP2 Ki is greater than 10000 nM.

Turning to `CCCc1cc(Cl)ccc1-c1cccc(C(O)/C=C/[C@H]2CCC(=O)N2CCCc2ccc(C(=O)O)cc2)c1` (single isomer, unassigned) [Example 25], the midpoint of the response in assay [1], the EC50, lay at 63 nM. The affinity in assay [2] corresponds to a Ki of 130 nM. The compound further had an EP2 Ki in assay [3] greater than 10000 nM.

In assay [2], `O=C(O)c1ccc(CCCN2C(=O)CC[C@@H]2/C=C/C(O)c2cccc(-c3ccccc3)c2)cc1` (single isomer, unassigned) [Example 5] returned a Ki of 8560 nM. In assay [3], this compound showed an EP2 Ki greater than 10000 nM.

In the case of `CC(C)c1cc(O)ccc1-c1cccc(C(O)/C=C/[C@H]2CCC(=O)N2CCCc2ccc(C(=O)O)cc2)c1` (stereo partly drawn) [Example 31, 4-[3-(2(R)-{(1E)-3-hydroxy-3-[4′-hydroxy-2′-(propan-2-yl)biphenyl-3-yl]prop-1-en-1-yl}-5-oxopyrrolidin-1-yl)propyl]benzoic acid], the EC50 in assay [1] was 60 nM. The same compound displayed a Ki in assay [2] of 211 nM. Further, the EP2 Ki in assay [3] is greater than 10000 nM.

With `O=C(O)c1ccc(CCCN2C(=O)CC[C@@H]2/C=C/C(O)c2cccc(-c3ccc(Cl)cc3CO)c2)cc1` (stereo partly drawn) [Example 18, 4-[3-(2(R)-{(1E)-3-[4′-chloro-2′-(hydroxymethyl)biphenyl-3-yl]-3-hydroxyprop-1-en-1-yl}-5-oxopyrrolidin-1-yl)propyl]benzoic acid], the EP4 cAMP EC50 in assay [1] is greater than 10000 nM. The EP4 Ki in assay [2] was greater than 10000 nM. This compound also displayed an EP2 Ki in assay [3] greater than 10000 nM.

In assay [1], `Cc1cc(Cl)cc(C)c1-c1cccc(C(O)/C=C/[C@H]2CCC(=O)N2CCCc2ccc(C(=O)O)cc2)c1` (single isomer, unassigned) [Example 20] returned an EC50 of 138 nM. Further, the affinity in assay [2], expressed as Ki, was 955 nM. The same compound had an EP2 Ki in assay [3] greater than 10000 nM.

On to `Cc1cc(Cl)ccc1-c1cc(C(O)/C=C/[C@H]2CCC(=O)N2CCCc2ccc(C(=O)O)cc2)ccc1F` (single isomer, unassigned) [Example 37], for which the EC50 in assay [1] is 123 nM and 211 nM.

Turning to `O=C(O)c1ccc(CCCN2C(=O)CC[C@@H]2/C=C/C(O)c2cccc(-c3ccccc3)c2)cc1` (single isomer, unassigned) [Example 6], in assay [1], the EP4 cAMP EC50 is greater than 10000 nM. Besides, the inhibition constant Ki in assay [2] amounted to 6710 nM. This compound also returned an EP2 Ki in assay [3] greater than 10000 nM.

`O=C(O)c1ccc(CCCN2C(=O)CC[C@@H]2/C=C/C(O)c2cccc(-c3ccc(Cl)cc3C(F)(F)F)c2)cc1` (single isomer, unassigned) [Example 17] gave a 50% effective concentration (EC50) in assay [1] of 3 nM. In assay [2], this compound yielded a Ki of 11 nM. The compound further showed an EP2 Ki in assay [3] greater than 10000 nM.

The compound `Cc1cc(Cl)ccc1-c1cc(C(O)/C=C/[C@H]2CCC(=O)N2CCCc2ccc(C(=O)O)cc2)ccc1F` (single isomer, unassigned) [Example 36] displayed an EC50 in assay [1] of 1030 nM. In addition, the Ki in assay [2] turned out to be 4480 nM. This compound registered an EP2 Ki in assay [3] greater than 10000 nM.

In assay [1], `Cc1ccccc1-c1cccc(C(O)/C=C/[C@H]2CCC(=O)N2CCCc2ccc(C(=O)O)cc2)c1` (single isomer, unassigned) [Example 7] displayed an EC50 of 14 nM. In assay [2], this compound returned a Ki of 1150 nM. This compound also came in with an EP2 Ki in assay [3] greater than 10000 nM.

The compound `Cc1cc(Cl)ccc1-c1cc(F)cc(C(O)/C=C/[C@H]2CCC(=O)N2CCCc2ccc(C(=O)O)cc2)c1` (single isomer, unassigned) [Example 34] registered an EC50 in assay [1] of 1740 nM. In addition, the Ki in assay [2] is 4340 nM. The same compound returned an EP2 Ki in assay [3] greater than 10000 nM.
